Measurements taken from publication PMC8016666, “A novel combination therapy targeting ubiquitin-specific protease 5 in MYCN-driven neuroblastoma” (Oncogene, 2021).

Biological target: T1, USP5 (Homo sapiens, UniProt P45974)
T1 construct: full-length
T1 sequence (P45974 2-858): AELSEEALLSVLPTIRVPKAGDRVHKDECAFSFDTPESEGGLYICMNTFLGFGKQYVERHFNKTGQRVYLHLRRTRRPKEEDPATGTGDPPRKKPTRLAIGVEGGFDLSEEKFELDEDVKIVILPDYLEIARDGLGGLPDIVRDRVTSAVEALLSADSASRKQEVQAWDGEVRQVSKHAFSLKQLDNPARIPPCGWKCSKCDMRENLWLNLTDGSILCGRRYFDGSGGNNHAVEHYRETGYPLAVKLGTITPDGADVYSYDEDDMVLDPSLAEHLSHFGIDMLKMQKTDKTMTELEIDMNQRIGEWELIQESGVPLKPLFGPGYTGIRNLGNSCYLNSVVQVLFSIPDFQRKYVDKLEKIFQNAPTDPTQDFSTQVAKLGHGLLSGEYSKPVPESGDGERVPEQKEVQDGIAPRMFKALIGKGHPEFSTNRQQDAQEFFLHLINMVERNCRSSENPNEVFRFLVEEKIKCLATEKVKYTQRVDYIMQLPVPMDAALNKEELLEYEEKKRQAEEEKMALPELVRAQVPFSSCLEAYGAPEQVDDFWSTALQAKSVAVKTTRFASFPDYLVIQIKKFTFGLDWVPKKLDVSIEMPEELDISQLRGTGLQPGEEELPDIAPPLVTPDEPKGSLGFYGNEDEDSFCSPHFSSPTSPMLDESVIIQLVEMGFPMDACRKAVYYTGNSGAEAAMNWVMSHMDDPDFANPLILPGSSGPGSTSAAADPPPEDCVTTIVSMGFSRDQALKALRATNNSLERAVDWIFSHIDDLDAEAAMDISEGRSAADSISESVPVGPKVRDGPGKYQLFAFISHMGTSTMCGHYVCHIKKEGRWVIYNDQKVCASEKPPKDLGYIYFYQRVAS
Assay: microscale thermophoresis with purified labelled USP5
Assay type: binding

Kd: 2.76 µM
Structure (SMILES): O=C(CCCCCCC(=O)Nc1ccccc1)NO [SAHA]
